Reference: patent US12054752B2, “HLA-A2 subtype-specific PLK1-derived epitope inducing antigen-specific t cell immune response to PLK1 protein” (THE CATHOLIC UNIVERSITY OF KOREA INDUSTRY-ACADEMIC …, priority 2017, dated 2024)

Assays:
[1] = system: T2 cell lines expressing HLA-A2 molecules; test: IFN-γ EliSpot of spleen CD8+T cells from mice electroporated with multi-epitope PLK1 recombinant DNA, against T2 cells sensitized with each epitope peptide; format: cell-based, HLA-A2 transgenic mice; settings: CD8+T cells of spleens after electroporation with PLKWT / PLKOPT recombinant DNA 3 times at 7-day intervals, FIGS. 2A and 2B
From the text: FIGS. 2A and 2B illustrate the EliSpot results confirming immune responses occurring in the spleen after HLA-A2 transgenic mice are subjected to electroporation with a recombinant DNA (FIG. 2A) including multiple wild-type PLK1 epitopes and a recombinant DNA (FIG. 2B) including multiple PLK1 epitopes optimized for recombination.
In order to use a DNA-based vaccination strategy inducing multi-epitope-specific T cell immune responses, an amino acid sequence of the predicted PLK1-derived HLA-A2 multi-epitope was linked to a furin-sensitive linker (SGSG) amino acid sensitive to a proteolytic enzyme of the Golgi apparatus and cloned into a pCI expression vector (see FIG. 1).
Recombinant DNA, PLKWT and PLKOPT were transfected into HLA-A2 transgenic mice and biological electric shock therapy was performed at 95 V (4×65 ms pulses with repoling) using an Electro square wave electroporation device (ECM830; BTX; San Diego, CA). After the biological electric shock therapy was performed 3 times at 7-day intervals, CD8+T cells of mouse spleens were isolated. IFN-γ EliSpot was performed by sensitizing T2 cell lines expressing HLA-A2 molecules with each predicted epitope peptide and using T2 cell lines as a target cell.

[2] = system: CD8+T cells; test: Flow cytometry of spleen CD8+T cells expressing IFN-γ and CD107a/b after dendritic cell vaccination and peptide-based TriVax vaccination; format: in vivo, HLA-A2 transgenic mice; settings: spleen T cells cultured with PLK1 antigen; compared to the groups using PLK1477 and PLK1541 antigen-peptides; FIG. 3
From the text: FIG. 3 illustrates flow cytometry analysis results confirming CD8+T cell immune responses of PLK1123 (SDFVFVVLEL, SEQ ID NO: 1), PLK1477 (TLLKYFRNYM, SEQ ID NO: 2), and PLK1541/21 (LILCPLMAAV, SEQ ID NO: 3) among PLK-1-derived epitope candidates specific for HLA-A2 with CD107a/b.
Next, HLA-A2-binding PLK1123 (SDFVFVVLEL, SEQ ID NO: 1), PLK1477 (TLLKYFRNYM, SEQ ID NO: 2), and PLK1541 (LILCPLMAAV, SEQ ID NO: 3) peptides confirmed as dominant epitopes were selected in a multi-epitope DNA-based vaccination experiment in the HLA-A2 transgenic mice, and immunized into the HLA-As transgenic mice by a dendritic cell vaccination and peptide-based TriVax vaccination (CD40 antibody/Poly-IC/epitope) strategy. After an immune response to each epitope-peptide was induced through this, T cells of the spleens were obtained and each cultured with a PLK1 antigen, and then CD8+T cells expressing IFN-γ and CD107a/b were confirmed using flow cytometry.

[3] = system: T2 cell lines and HLA-A2 positive tumor cells; test: IFN-γ EliSpot of CD8+T cells from peptide-immunized mice against peptide-sensitized T2 cells and tumor cells; format: in vivo, HLA-A2 transgenic mice; settings: targets CCRF-SB, THP-1, SKM-1, SK-MEL-5 (HLA-A2 positive), HL-60 and SK-MEL-3 (HLA-A2 negative), FIG. 4A to 4C
From the text: FIG. 4A to 4C illustrate the EliSpot results confirming immune responses occurring by immunization of HLA-A2 transgenic mice with PLK1123 (SDFVFVVLEL, SEQ ID NO: 1)(FIG. 4A), PLK1477 (TLLKYFRNYM, SEQ ID NO: 2)(FIG. 4B), and PLK1541/21 (LILCPLMAAV, SEQ ID NO: 3)(FIG. 4C) among PLK1-derived epitope candidates specific for HLA-2 by a dendritic cell vaccination and peptide-based vaccination strategy.
In order to examine CD8+T cell immune responses, an immune response occurring in the spleen was confirmed by immunization into HLA-A2 transgenic mice by a dendritic cell vaccination and peptide-based vaccination strategy. For this purpose, HLA-A2-binding PLK1123 ([…], SEQ ID NO: 1), PLK1477 (TLLKYFRNYM, SEQ ID NO: 2), and PLK1541 (LILCPLMAAV, SEQ ID NO: 3) peptides confirmed as dominant epitopes were selected in a multi-epitope DNA-based vaccination experiment in the HLA-A2 transgenic mice, and immunized into the HLA-As transgenic mice by a dendritic cell vaccination and peptide-based TriVax vaccination (CD40 antibody/Poly-IC/epitope) strategy. After an immune response to each epitope-peptide was induced through this, CD8+T cells were obtained by antibody-binding magnetic cell sorting, and used as effector cells for confirming an antigen-specific T cell response. […]

Sequence	ability to produce IFN-γ by the activation of CD8+T cells for T2 cell lines sensitized with each epitope peptide [1]	rate of antigen-specific CD8+T cells (IFN-γ and CD107a/b) [2]	CD8+T cell responses specific for T2 cell lines and HLA-A2 positive tumor cells sensitized with PLK1-derived antigen-peptides [3]
TLLKYFRNYM (Human Polo-like kinase-1) [PLK1477]	high levels		
LILCPLMAAV (Human Polo-like kinase-1) [PLK1541 21]	high levels		
SDFVFVVLEL (Human Polo-like kinase-1) [PLK1123]	high levels	relatively high rate	observed
ILCPLMAAV (Human Polo-like kinase-1) [PLK1542]	high levels		
